Data as given in the supplement of paper PMC10307832.

What was measured:
Experiment in all cases: relative viability (nuclei count vs DMSO), 5 days (fraction); higher = more cells survive
Carboplatin + Navitoclax = compound: C1CC(C1)(C(=O)O)C(=O)O.[NH2-].[NH2-].[Pt+2] [Carboplatin] + CC1(C)CCC(c2ccc(Cl)cc2)=C(CN2CCN(c3ccc(C(=O)NS(=O)(=O)c4ccc(N[C@H](CCN5CCOCC5)CSc5ccccc5)c(S(=O)(=O)C(F)(F)F)c4)cc3)CC2)C1 [Navitoclax] (partner 0.5 µM)
How it was run: (§1)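 Five library-drug doses in √10 steps were combined with a fixed anchor-drug dose, or a single drug was given alone, by pin tool to lung cancer cell lines in 1536-well plates the day after seeding. Nuclei were stained and counted after 5 days. Relative viability is the nuclei count in treated wells over that in vehicle wells, taken as the median of duplicate plates.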

GSK126 + Palbociclib = compound: CC[C@H](C)N1C=C(C2=C(C=C(C=C21)C3=CN=C(C=C3)N4CCNCC4)C(=O)NCC5=C(C=C(NC5=O)C)C)C [GSK126] + CC(=O)c1c(C)c2cnc(Nc3ccc(N4CCNCC4)cn3)nc2n(C2CCCC2)c1=O [Palbociclib] (partner 0.5 µM)
How it was run: as §1

GSK126 + Navitoclax = compound: CC[C@H](C)N1C=C(C2=C(C=C(C=C21)C3=CN=C(C=C3)N4CCNCC4)C(=O)NCC5=C(C=C(NC5=O)C)C)C [GSK126] + CC1(C)CCC(c2ccc(Cl)cc2)=C(CN2CCN(c3ccc(C(=O)NS(=O)(=O)c4ccc(N[C@H](CCN5CCOCC5)CSc5ccccc5)c(S(=O)(=O)C(F)(F)F)c4)cc3)CC2)C1 [Navitoclax] (partner 0.5 µM)
How it was run: as §1

MLN4924 + Pemetrexed = compound: NS(=O)(=O)OC[C@@H]1C[C@@H](n2ccc3c(N[C@H]4CCc5ccccc54)ncnc32)C[C@@H]1O [MLN4924] + Nc1nc2[nH]cc(CCc3ccc(C(=O)N[C@@H](CCC(=O)O)C(=O)O)cc3)c2c(=O)[nH]1 [Pemetrexed] (partner 0.2 µM)
How it was run: as §1

Cell Line | relative viability (Carboplatin + Navitoclax; first compound 0.08 µM) | relative viability (Carboplatin + Navitoclax; first compound 0.253 µM) | relative viability (Carboplatin + Navitoclax; first compound 0.8 µM) | relative viability (Carboplatin + Navitoclax; first compound 2.53 µM) | relative viability (Carboplatin + Navitoclax; first compound 8 µM) | relative viability (GSK126 + Palbociclib; first compound 0.08 µM) | relative viability (GSK126 + Palbociclib; first compound 0.253 µM) | relative viability (GSK126 + Palbociclib; first compound 0.8 µM) | relative viability (GSK126 + Palbociclib; first compound 2.53 µM) | relative viability (GSK126 + Palbociclib; first compound 8 µM) | relative viability (GSK126 + Navitoclax; first compound 0.08 µM) | relative viability (GSK126 + Navitoclax; first compound 0.253 µM) | relative viability (GSK126 + Navitoclax; first compound 0.8 µM) | relative viability (GSK126 + Navitoclax; first compound 2.53 µM) | relative viability (GSK126 + Navitoclax; first compound 8 µM) | relative viability (MLN4924 + Pemetrexed; first compound 0.04 µM) | relative viability (MLN4924 + Pemetrexed; first compound 0.1265 µM) | relative viability (MLN4924 + Pemetrexed; first compound 0.4 µM) | relative viability (MLN4924 + Pemetrexed; first compound 1.265 µM) | relative viability (MLN4924 + Pemetrexed; first compound 4 µM)
HCC-44 | 0.949 | 0.99 | 0.914 | 0.786 | 0.874 | 0.96 | 1.04 | 1.01 | 0.916 | 0.894 | 0.963 | 0.981 | 0.853 | 0.906 | 1.01 | 0.653 | 0.62 | 0.484 | 0.455 | 0.443
NCI-H2087 | 0.944 | 1.03 | 0.944 | 1.01 | 0.895 | 0.217 | 0.215 | 0.191 | 0.212 | 0.206 | 0.992 | 0.917 | 1.14 | 1.02 | 1.14 | 0.639 | 0.71 | 0.562 | 0.118 | 0.0987
RERF-LC-KJ | 1.29 | 0.739 | 0.822 | 0.915 | 0.652 | 1.15 | 1.27 | 1.02 | 1.04 | 1.09 | 1.29 | 1.02 | 1.18 | 0.956 | 0.828 | 0.523 | 0.426 | 0.18 | 0.208 | 0.224
NCI-H2126 | 0.894 | 0.871 | 0.853 | 0.865 | 0.784 | 0.343 | 0.359 | 0.327 | 0.39 | 0.354 | 0.915 | 0.919 | 0.812 | 0.852 | 0.934 | 0.659 | 0.676 | 0.435 | 0.278 | 0.281
NCI-H2228 | 1.2 | 0.818 | 0.855 | 0.744 | 0.472 | 0.985 | 0.519 | 0.713 | 0.674 | 0.967 | 0.55 | 1.01 | 1.1 | 0.863 | 0.837 | 0.377 | 0.32 | 0.213 | 0.0983 | 0.119
SK-LU-1 | 0.824 | 0.774 | 0.946 | 0.872 | 0.387 | 0.402 | 0.364 | 0.412 | 0.389 | 0.414 | 0.857 | 0.819 | 0.911 | 0.915 | 0.855 | 0.94 | 0.829 | 0.26 | 0.194 | 0.212
HARA | 1.1 | 1.16 | 1.08 | 1.07 | 1.09 | 0.325 | 0.238 | 0.249 | 0.296 | 0.279 | 1.18 | 1.11 | 1.1 | 1.15 | 1.14 | 0.215 | 0.164 | 0.14 | 0.0838 | 0.183
EPLC-272H | 1.15 | 1.18 | 0.978 | 1.29 | 1.11 | 0.344 | 0.324 | 0.33 | 0.374 | 0.301 | 1.24 | 1.15 | 1.29 | 1.17 | 1.2 | 0.242 | 0.195 | 0.0979 | 0.128 | 0.155
SK-MES-1 | 1.13 | 1.3 | 1.2 | 1.21 | 1.16 | 0.384 | 0.324 | 0.337 | 0.329 | 0.35 | 1.4 | 1.27 | 1.1 | 1.33 | 1.16 | 0.968 | 0.87 | 0.415 | 0.227 | 0.247
COR-L 105 | 0.66 | 0.809 | 0.595 | 0.822 | 0.531 | 0.42 | 0.423 | 0.421 | 0.377 | 0.415 | 0.813 | 0.745 | 0.754 | 0.678 | 0.719 | 0.901 | 0.914 | 0.557 | 0.305 | 0.363
NCI-H2170 | 0.679 | 0.594 | 0.633 | 0.588 | 0.508 | 0.433 | 0.388 | 0.385 | 0.397 | 0.394 | 0.623 | 0.607 | 0.575 | 0.632 | 0.606 | 0.275 | 0.311 | 0.271 | 0.129 | 0.135
EKVX | 0.948 | 1.03 | 0.909 | 0.967 | 0.852 | 0.455 | 0.366 | 0.38 | 0.405 | 0.363 | 0.984 | 0.95 | 0.902 | 0.97 | 0.853 | 0.45 | 0.411 | 0.316 | 0.23 | 0.174
NCI-H1437 | 1.07 | 1.14 | 1.09 | 1.05 | 0.97 | 0.313 | 0.278 | 0.293 | 0.279 | 0.316 | 1.14 | 1.11 | 1.04 | 1.03 | 1.03 | 0.314 | 0.275 | 0.28 | 0.208 | 0.177
PC-3 [JPC-3] | 0.85 | 0.78 | 0.83 | 0.717 | 0.725 | 0.516 | 0.565 | 0.565 | 0.488 | 0.485 | 0.877 | 0.862 | 0.874 | 0.76 | 0.753 | 1.1 | 1.26 | 0.288 | 0.311 | 0.377
LK-2 | 0.905 | 1.03 | 0.74 | 0.74 | 0.995 | 0.682 | 0.657 | 0.738 | 0.558 | 0.681 | 0.957 | 0.772 | 0.819 | 0.789 | 0.756 | 0.25 | 0.248 | 0.203 | 0.117 | 0.106
